Data reported in patent US6245817A, “NPY5 receptor antagonists and methods for using same” (Bayer Corporation, priority 1999, dated 2001).

What was measured:
[1] = biological target: T1, Rat NPY5 Receptor (Rattus norvegicus, UniProt Q63634); assay: Rat NPY5 Receptor Binding Assay; details: for IC50: [125I]PYY, read-out: rNPY5 IC50
T1 sequence (Q63634 1-445): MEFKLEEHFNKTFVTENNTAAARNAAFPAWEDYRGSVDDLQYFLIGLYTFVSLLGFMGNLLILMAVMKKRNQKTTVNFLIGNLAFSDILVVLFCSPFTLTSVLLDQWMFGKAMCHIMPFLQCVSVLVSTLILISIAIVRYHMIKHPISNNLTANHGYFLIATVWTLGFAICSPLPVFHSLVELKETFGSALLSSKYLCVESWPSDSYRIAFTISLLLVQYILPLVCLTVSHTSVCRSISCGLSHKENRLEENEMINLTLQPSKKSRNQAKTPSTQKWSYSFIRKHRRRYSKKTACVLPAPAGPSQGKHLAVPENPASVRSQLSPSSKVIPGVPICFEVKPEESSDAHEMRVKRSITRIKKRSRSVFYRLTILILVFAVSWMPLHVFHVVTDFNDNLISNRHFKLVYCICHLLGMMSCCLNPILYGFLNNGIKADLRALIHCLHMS

[2] = biological target: T2, Human NPY5 Receptor (Homo sapiens, UniProt Q15761); assay: Human NPY5 Receptor Binding Assay; details: [125I]PYY; read-out: hNPY5 IC50
T2 sequence (Q15761 1-445): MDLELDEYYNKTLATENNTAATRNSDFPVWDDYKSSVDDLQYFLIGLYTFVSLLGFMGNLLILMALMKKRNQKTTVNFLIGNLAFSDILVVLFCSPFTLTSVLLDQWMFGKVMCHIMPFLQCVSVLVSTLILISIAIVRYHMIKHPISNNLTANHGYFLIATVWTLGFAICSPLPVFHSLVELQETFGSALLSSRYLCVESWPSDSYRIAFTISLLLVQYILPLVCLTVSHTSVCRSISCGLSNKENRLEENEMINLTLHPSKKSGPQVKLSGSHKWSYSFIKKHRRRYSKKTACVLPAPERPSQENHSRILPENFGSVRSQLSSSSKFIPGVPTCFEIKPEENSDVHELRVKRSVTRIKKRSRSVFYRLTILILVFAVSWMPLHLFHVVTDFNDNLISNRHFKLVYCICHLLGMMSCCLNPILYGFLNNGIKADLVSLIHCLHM
Experimental: Human and Rat NPY5 Receptor Binding Assays
Binding assays are performed on GF/C Millipore 96-well plates pretreated with 0.02% polyethylenimine. The binding buffer is 25 mM Tris, 120 mM NaCl, 5 mM KCl, 1.2 mM KH2 PO4, 2.5 mM CaCl2, 1.2 mM MgSO4, 0.1% BSA and 0.5 mg/ml bacitracin, pH 7.4. Samples consist of membrane protein, 75-100 pM [125I]PYY (porcine, NEN-DuPont) and drug dilution. Nonspecific binding is defined by 1 μM PYY. After a 2 hour incubation at room temperature with constant mixing, the samples are aspirated on a vacuum manifold, and rinsed with ice-cold binding buffer. The amount of radioactivity in each well is quantitated with either gamma counting or liquid scintillation. IC50 values, which correspond to 50% inhibition of specific binding, are determined with non-linear regression analysis.

| inhibition at 10 µM ([1]; 10 μM, values marked *, read-out: rNPY5 percent inhibition at 10 μM) | IC50 [2] | IC50 [1] | Structure (SMILES) |
| --- | --- | --- | --- |
| 97% |  |  | O=C(CSc1ncc[nH]1)Nc1ccc(C(=O)c2ccccc2)cc1 [Compound 10, N-(4-Benzoyl-phenyl)-2-(1H-imidazol-2-ylsulfanyl)-acetamide] |
|  |  | > 1000 nM | Cc1nc(SCC(=O)Nc2ccc(C(=O)c3ccccc3)cc2)n[nH]1 [Compound 81, N-(4-Benzoyl-phenyl)-2-(5-methyl-1H-[1,2,4]triazol-3-ylsulfanyl)-acetamide] |
|  |  | > 1000 nM | O=C(CSc1ncnc2ccccc12)Nc1ccc(C(=O)c2ccccc2)cc1 [Compound 82, N-(4-Benzoyl-phenyl)-2-(quinazolin-4-ylsulfanyl)-acetamide] |
|  | 210 nM | 200 nM | O=C(CSc1nccc(C(F)(F)F)n1)Nc1ccc(C(=O)c2ccccc2)cc1 [Compound 83, N-(4-Benzoyl-phenyl)-2-(4-trifluoromethylpyrimidin-2-ylsulfanyl)-acetamide] |
|  |  | > 1000 nM | Nc1cc(N)nc(SCC(=O)Nc2ccc(C(=O)c3ccccc3)cc2)n1 [Compound 84, N-(4-Benzoyl-phenyl)-2-(4,6-diamino-pyrimidin 2-ylsulfanyl)-acetamide] |
|  | 200 nM | 220 nM | O=C(CSc1nc(-c2ccccc2)no1)Nc1ccc(C(=O)c2ccccc2)cc1 [Compound 85, N-(4-Benzoyl-phenyl)-2-(3-phenyl-[1,2,4]oxadiazol-ylsulfanyl)-acetamide] |
|  | 170 nM | 150 nM | Cc1nnc(SCC(=O)Nc2ccc(C(=O)c3ccccc3)cc2)s1 [Compound 86, N-(4-Benzoyl-phenyl)-2-(5-methyl-[1,3,4]thiadiazol-2-ylsulfanyl)-acetamide] |
|  | 100 nM | 120 nM | O=C(CSc1nnnn1-c1ccc(O)cc1)Nc1ccc(C(=O)c2ccccc2)cc1 [Compound 87, N-(4-Benzoyl-phenyl)-2-[1-(4-hydroxy-phenyl)-1H-tetrazol-5-ylsulfanyl]-acetamide] |
|  | 590 nM | 720 nM | O=C(CSc1nnc(-c2ccccc2)o1)Nc1ccc(C(=O)c2ccccc2)cc1 [Compound 89, N-(4-Benzoyl-phenyl)-2-(5-phenyl [1,3,4]oxadiazol-2-ylsulfanyl)-acetamide] |
|  |  | > 1000 nM | O=C(CSc1ccc2ccccc2n1)Nc1ccc(C(=O)c2ccccc2)cc1 [Compound 100, N-(4-Benzoyl-phenyl)-2-(quinolin-2-ylsulanyl)-acetamide] |
|  |  | > 1000 nM | Nc1ccc(SCC(=O)Nc2ccc(C(=O)c3ccccc3)cc2)cc1 [Compound 103, 2-(4-Amino-phenylsulfanyl)-N-(4-benzoyl-phenyl)-acetamide] |
|  |  | > 1000 nM | Cc1cnc(SCC(=O)Nc2ccc(C(=O)c3ccccc3)cc2)nc1S [Compound 104, N-(4-Benzoyl-phenyl)-2-(4-mercapt-5-methyl-pyrimidin-2-ylsulfanyl)-acetamide] |
|  |  | > 1000 nM | Nc1nc(S)nc(SCC(=O)Nc2ccc(C(=O)c3ccccc3)cc2)n1 [Compound 105, 2-(4-Amino-mercapto-[1,3,5]triazin-2-ylsulfanyl)-N-(4-benzoyl-phenyl)-acetamide] |
|  |  | > 1000 nM | COc1cccc(SCC(=O)Nc2ccc(C(=O)c3ccccc3)cc2)c1 [Compound 106, N-(4-Benzoyl-phenyl)-2-(3-methoxy-phenylsulfanyl)-acetamide] |
|  |  | > 1000 nM | CSc1ccc(SCC(=O)Nc2ccc(C(=O)c3ccccc3)cc2)cc1 [Compound 108, N-(4-Benzoyl-phenyl)-2-(4-methylsulfanyl-phenylsulfanyl)-acetamide] |
|  |  | > 1000 nM | O=C(CSc1n[nH]c(-c2ccco2)n1)Nc1ccc(C(=O)c2ccccc2)cc1 [Compound 118] |

The remaining lines, values behind:

| Structure (SMILES) | inhibition at 10 µM ([1]; 10 μM, values marked *, read-out: rNPY5 percent inhibition at 10 μM) | IC50 [2] | IC50 [1] |
| --- | --- | --- | --- |
| Cc1ccnc(SCC(=O)Nc2ccc(C3CCCCC3)cc2)n1 [Compound 29] |  | 190 nM |  |
| Cc1nc(SCC(=O)Nc2ccc(C3CCCCC3)cc2)n[nH]1 [Compound 73, N-(4-Cyclohexyl-phenyl)-2-(5-methyl-1H-[1,2,4]triazol-3-ylsulfanyl)-acetamide] |  | > 1000 nM |  |
| O=C(CSc1ncnc2ccccc12)Nc1ccc(C2CCCCC2)cc1 [Compound 74, N-(4-Cyclohexyl-phenyl)-2-(quinazolin-4-ylsulfanyl)-acetamide] |  | > 1000 nM |  |
| O=C(CSc1nccc(C(F)(F)F)n1)Nc1ccc(C2CCCCC2)cc1 [Compound 75, N-(4-Cyclohexyl-phenyl)-2-(4-trifluoromethylpyrimidin-2-ylsulfanyl)-acetamide] |  | > 1000 nM |  |
| Nc1cc(N)nc(SCC(=O)Nc2ccc(C3CCCCC3)cc2)n1 [Compound 76, N-(4-Cycyclohexyl-phenyl)-2-(4,6-diamino-pyrimidin-2-ylsulfanyl)-cetamide] |  | > 1000 nM |  |
| CCOc1ccc2nc(SCC(=O)Nc3ccc(C4CCCCC4)cc3)sc2c1 [Compound 77, N-(4-Cyclohexyl-phenyl)-2-(6-ethoxy-benzothiazol-2-ylsulfanyl)-acetamide] |  | > 1000 nM |  |
| Nc1nc(SCC(=O)Nc2ccc(C3CCCCC3)cc2)nc(O)c1N=O [Compound 78, 2-(4-Amino-6-hydroxy-5-nitroso-pyrimidin-2-ylsulfanyl)-N-(4-Cyclohexyl-phenyl)-acetamide] |  | > 1000 nM |  |
| O=C(CSc1nc2cc(Cl)ccc2s1)Nc1ccc(C2CCCCC2)cc1 [Compound 79] |  | > 1000 nM |  |
| Cc1cc(C)nc(SCC(=O)Nc2ccc(C3CCCCC3)cc2)n1 [Compound 80, N-(4-Cyclohexyl-phenyl)-2-(4,6-dimethyl-pyrimidin-2-ylsulfanyl)-acetamide] |  | > 1000 nM |  |
| O=C(CSc1ccnc2cc(C(F)(F)F)ccc12)Nc1ccc(C(=O)c2ccccc2)cc1 [Compound 88, N-(4-Benzoyl-phenyl)-2-(7-trifluoromethyl-quinolin-4-ylsulfanyl)-acetamide] |  |  | > 1000 nM |
| O=C(CSc1ccnc2cc(C(F)(F)F)ccc12)Nc1ccc(C2CCCCC2)cc1 [Compound 93, N-(4-Cyclohexyl-phenyl)-2-(7-trifluoromethyl-quinolin-4-ylsulfanyl)-acetamide] |  |  | > 1000 nM |
| O=C(CSc1ccc2ccccc2n1)Nc1ccc(C2CCCCC2)cc1 [Compound 95, N-(4-Cyclohexyl-phenyl)-2-(quinolin-2-ylsulfanyl)-acetamide] |  |  | > 1000 nM |
| Cc1cc(C)c(CSCC(=O)Nc2ccc(C(=O)c3ccccc3)cc2)c(C)c1 [Compound 107, N-(4-Benzoyl-phenyl)-2-(2,4,6-trimethyl-benzylsulfanyl)-acetamide] |  |  | > 1000 nM |
| CSc1sc(-c2nnc(SCC(=O)Nc3ccc(C4CCCCC4)cc3)n2C)c2c1C=CCC2 [Compound 112, N-(4-Cyclohexyl-phenyl)-2-[4-methyl-5-(3-methylsulfanyl-6,7-dihydro-benzo[C]thiophen-1-yl)-4H-[1,2,4]triazol-3-ylsulfanyl]-acetamide] |  |  | > 1000 nM |
| COc1ccc(-c2nnc(SCC(=O)Nc3ccc(C4CCCCC4)cc3)n2-c2cccc(C(F)(F)F)c2)cc1 [Compound 113, N-(4-Cyclohexyl-phenyl)-2-[5-(4-methoxy-phenyl)-4-(3-trifluoromethyl-phenyl)-4-[1,2,4]triazol-3-ylsulfanyl]-acetamide] |  |  | > 1000 nM |
| O=C(CSc1nnc(CSCCOc2ccc(Cl)cc2Cl)o1)Nc1ccc(C2CCCCC2)cc1 [Compound 117] |  |  | > 1000 nM |
| Cn1nnnc1SCC(=O)NCCc1cccs1 [Compound 126, 2-(1-Methyl-1H-tetrazol-5-ylsulfanyl)-N-(2-thiophen-2-yl-ethyl)-acetamide] |  |  | > 1000 nM |
| Cn1nnnc1SCC(=O)Nc1nc2ccccc2s1 [Compound 128, N-Benzothiazol-2-yl-2-(1-methyl-1H-tetrazol-5-ylsulfanyl)-acetamide] |  |  | > 1000 nM |
| Cn1nnnc1SCC(=O)N1CCCCCC1 [Compound 129, 1-Azepan-1-yl-2-(1-methyl-1H-tetrazol-5-ylsulfanyl)-ethanone] |  |  | > 1000 nM |
| Cn1nnnc1SCC(=O)Nc1cccc2c1Cc1ccccc1-2 [Compound 131, N-(9H-Fluoren-1-yl)-2-(1-methyl-1H-tetrazol-5-ylsulfanyl)-acetamide] |  |  | > 1000 nM |
| O=C(COc1ccccc1)Nc1ccc(C2CCCCC2)cc1 [Compound 132, N-(4-Cyclohexyl-phenyl)-2-phenoxy-acetamide] |  |  | > 1000 nM |
| CN1CCC(OCC(=O)Nc2ccc(C(=O)c3ccccc3)cc2)CC1 [Compound 133, N-(4-Benzoyl-phenyl)-2-(1-methyl-piperidin-4-yloxy)-acetamide] |  |  | > 1000 nM |
| O=C(COc1ccccc1)Nc1ccc(C(=O)c2ccccc2)cc1 [Compound 134, N-(4-Benzoyl-phenyl)-2-phenoxy-acetamide] |  |  | > 1000 nM |
| CN1CCC(OCC(=O)Nc2ccc(C3CCCCC3)cc2)CC1 [Compound 135, N-(4-Cyclohexyl-phenyl)-2-(1-methy-piperidin-4-yloxy)-acetamide] |  |  | > 1000 nM |
